Test results reported in US11040106B2, “Conjugates of kinase inhibitors and cyanine dyes” (priority 2018, dated 2021).
“Also recorded” adds a separate entry of the source. Read-outs that look alike come from different tables or passages of the source.

Columns and labels:
[1] = system: HUVEC; test: Light and dark toxicity on HUVEC; format: cell-based; conditions: 1 h incubation, 10 minutes irradiation
Text: HUVEC cells are non-carcinogentic, “normal” […] cells.

[2] = system: U87-MG (Glioblastoma) cells; test: Light and dark toxicity on U87-MG cells; format: cell-based, human
[3] = system: U87-MG (Glioblastoma) cells as compared to HUVEC (normal cells); test: Uptake by U87-MG cells as compared to HUVEC; format: cell-based, human
[4] = system: U87-MG cells; test: Cytotoxicity (cell viability) on U87-MG cells; format: cell-based; conditions: for cytotoxicity compared with parent dye, parent kinase inhibitor (and their mixture): U87-MG cells (glioblastoma); for cytotoxicity compared with ICG-COOH conjugate: U87-MG, 24 and 48 h
[5] = system: HEPG2 cells; test: Cytotoxicity (cell viability, MTT assay) on HEPG2 cells; format: cell-based; conditions: HEPG2 cells (liver cancer)
Protocol: Approximately 5000 HEPG2 cells/well were seeded on 96 well plate containing 10% fetal bovine serum. Cells were allowed to adhere overnight before test compounds were added. Stock solutions of 1a (0.02 M in DMSO) were diluted with protein-free medium (PFHM-II) to make desired final concentrations varying from 0.01 to 80 μM. The cells were incubated with the desired concentration for 48 h. The cell viabilities were calculated using MTT assay. Briefly, 20 μL of 3-(4,5-dimethylthiazol-2-yl)-2,5-diphenyltetrazolium bromide MTT (5 mg/mL, in Hank's balanced salt solution) were added and the cells were incubated for an additional 3.5 h. The medium was then removed, and […] of DMSO was added to dissolve the formazan crystal formed. The optical density of each well (at 570 nm) was measured with a BioTek Synergy 4 Microplate Reader. The viability of each cell line in response to the treatment with tested compounds was calculated as: % dead cells=100−(OD treated/OD control)×100.

[6] = system: HEPG2 cells; test: 1a in HEPG2 cells: morphology change and co-localization in organelles; format: cell-based
Text: FIG. 5A visualizes some of the data from FIGS. 4A and 4B (that on HEPG2 cells).
Localization of compounds in mitochondria tends to give more pronounced cytotoxicity effects than accumulation in most organelles.

[7] = Solubility in water; format: physicochemical
Protocol: 1-NMe2 is water soluble up until 1000 μM whereas 1-CH2 precipitates at 100 μM.

[8] = Photostability under LED irradiation at 780 nm; format: physicochemical; conditions: PBS pH 7.4, LED 780 nm
Protocol: Initially, equimolar concentrations (20 μM) were used; QCy was reproducibly and more robust than the other two, but the difference was more than anticipated so the experimental design was suspected.

[9] = molecular target: T1, HSA (Homo sapiens, UniProt P02768); test: Covalent binding / reaction of cyanines with HSA (LC/MS, ESI MS, NIR-fluorescent gel)
T1 sequence (P02768 25-609): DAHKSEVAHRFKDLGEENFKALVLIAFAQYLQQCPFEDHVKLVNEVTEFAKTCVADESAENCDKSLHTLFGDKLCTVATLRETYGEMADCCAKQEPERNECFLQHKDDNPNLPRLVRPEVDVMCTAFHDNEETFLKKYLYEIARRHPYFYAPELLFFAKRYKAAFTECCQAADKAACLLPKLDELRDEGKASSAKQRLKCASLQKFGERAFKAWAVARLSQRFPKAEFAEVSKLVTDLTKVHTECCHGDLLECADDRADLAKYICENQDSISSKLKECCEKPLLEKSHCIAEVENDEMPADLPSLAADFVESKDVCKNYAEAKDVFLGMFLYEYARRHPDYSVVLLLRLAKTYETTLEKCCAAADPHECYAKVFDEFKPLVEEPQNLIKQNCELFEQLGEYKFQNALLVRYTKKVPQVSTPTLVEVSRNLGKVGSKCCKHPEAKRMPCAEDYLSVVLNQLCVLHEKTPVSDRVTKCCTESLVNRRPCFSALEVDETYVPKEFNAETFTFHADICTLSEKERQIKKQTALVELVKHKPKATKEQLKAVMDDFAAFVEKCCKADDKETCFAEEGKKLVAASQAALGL

[10] = system: U87-MG cells; test: Cytotoxicity of ICG, MHI-148 and QCy, 72 h in the dark, AlamarBlue; format: cell-based, human
Text: Cytotoxicity of QCy was studied using U87-MG cells (a glioblastoma multiforme line).

[11] = system: U87-MG glioblastoma cells; test: Organelle localization of the fluors (confocal imaging); format: cell-based, human; conditions: 37° C., DMEM/F12 with 10% FBS pH 7.4; for localization after time (h) 0.5: 0.5 h; for localization after time (h) 24: 24 h
[12] = system: U87-MG cells; test: Uptake and colocalization of 1-Cl and 1-HSA (confocal); format: cell-based, human
Protocol: Colocalization with trackers for mitochondria, lysosome, ER and Golgi are featured. Images were taken using Zeiss confocal microscope at 60×/1.2 water immerse objective after 30 mins of incubation.
FIG. 43 are data from a set of experiments nearly identical to those in FIG. […]
Data in FIG. 42 should be compared with literature reports describing import of 1-Cl but in media containing albumin into various cells.

[13] = molecular target: T1, HSA; test: Covalent binding / reaction of cyanines with HSA (LC/MS, ESI MS, NIR-fluorescent gel); conditions: HEPES buffer pH 7.4, 37° C.
Protocol: FIGS. 33A to 33D show kinetics of a, 1, c, 4, d, 5; e, 6 in 1 M HEPES buffer pH 7.4. […] The kinetics was examined on C, 18 column using Agilent 1200 series LC/MS at 600 nm.
FIGS. 34A and 34B show mass spectra of a, free HSA and b, 1 bound to HSA. HSA: 1 (2.5:1); buffer 1 M HEPES.
In a control experiment, human serum albumin (HSA) was reacted with 2.5 equivalents of 1-Cl at 37° C. in 1 M HEPES buffer. This 1-Cl:albumin molar ratio was selected because it is approximately that used in cell culture experiments to probe uptake of this dye.
To test this assertion the experimental design was modified in the following way.

[14] = Photophysical properties; format: physicochemical
[15] = system: K562 leukemia cells; test: Cytotoxicity (cell viability) on K562 cells; format: cell-based
[16] = system: MDA-MB-231 “triple negative” breast cancer cells; test: Cytotoxicity (cell viability) on MDA-MB-231 cells; format: cell-based; conditions: MDA-MB-231 (breast cancer cells)
[17] = Aggregation: concentration dependence of absorbance spectra; format: physicochemical; conditions: 1.25-20 μM, 10 mM pH 7.4 PBS
Protocol: FIGS. 37A and 37B show concentration dependence of absorbance spectra in the range 1.25-20 μM in 10 mM pH 7.4 PBS buffer a, (B) MHI-148 and b, (1) QCy.
Shoulders of that kind and indicative of H-aggregates, ie associative oligomers in which the transition moments of the monomers are not well aligned leading to […] (blue) shifts. Concentration dependences of absorbance spectra of QCy and MHI-148 (structurally the closest) were determined to explore H-aggregation further.

For CC1(C)C(=CC=C2CCCC(C=CC3=[N+](CCCCCC(=O)O)c4ccc(I)cc4C3(C)C)=C2Cl)N(CCCCCC(=O)O)c2ccc(I)cc21 [Compound 2aa], the “phototoxic effect on normal cells” value [1] was “does not significantly kill normal cells”, the “light versus dark toxicity” value ([2]; 1, 2, 4 and 6 h incubation, 10 mins irradiation) was “Light toxicity was more than light in every case” and the “light versus dark toxicity” value ([2]; 1 h incubation, irradiation 5, 10, 15, 20 minutes) was “kills the cells more in light than in dark”. The “uptake by U87-MG cells compared to HUVEC” value [3] was “the cancer cells uptake more of the compound”.
With Cc1nc(Nc2ncc(C(=O)Nc3c(C)cccc3Cl)s2)cc(N2CCN(CCOC(=O)CCCCCN3C(=CC=C4CCCC(C=CC5=[N+](CCCCCC(=O)O)c6ccccc6C5(C)C)=C4Cl)C(C)(C)c4ccccc43)CC2)n1 [Compound 1a] the “cytotoxicity compared with parent dye, parent kinase inhibitor (and their mixture)” value [4] was “more found to be toxic than individual 1, a or a combination of 1+a; also recorded: significantly more toxic than the parent dye, the parent kinase inhibitor, or a mixture of the dye and kinase inhibitor”, the “cytotoxicity compared with ICG-COOH conjugate” value [4] was “more toxic than ICG-COOH-a” and the “cytotoxicity compared with parent dye, parent kinase inhibitor (and their mixture)” value [5] was “more found to be toxic than individual 1, a or a combination of 1+a; also recorded: significantly more toxic than the parent dye, the parent kinase inhibitor, or a mixture of the dye and kinase inhibitor”. The organelle localization ([6]; HEPG2) was “localizes preferentially in mitochondria”, the “influence on cell morphology compared with dasatinib a” value ([6]; HEPG2, 24 and 48 h) was “much stronger influence on the cell morphology” and the “uptake by U87-MG cells compared to HUVEC” value [3] was “localizes more in U87-MG cells than HUVEC cells”.
For CC1(C)C(/C=C/C2=C(Cl)C(=C/C=C3\N(CCCCCC(=O)O)c4ccccc4C3(C)C)/CCC2)=[N+](CCCCCC(=O)O)c2ccccc21 [Compound 1], the “concentration at which it precipitates” value [7] was 100 µM, the “photostability (in words)” value [8] was “the least stable” and the “binding to thiol-blocked HSA (TCEP, then 6-maleimide hexanoic acid)” value ([9]; 15 μM HSA, 15 μM dye) was “did not bind to 1-Cl”. For the same compound, the “consumption in reaction with HSA” value ([9]; 0.5 mM HSA, 0.2 mM 1-Cl, 1 M HEPES pH 7.4, 37° C.) was “nearly all the 1-Cl is consumed after 72 h”, the IC50 [10] was 19.1 ± 1.01 µM and the “localization after time (h) 0.5” value [11] was “mitochondria”. The “localization after time (h) 24” value [11] was “mitochondria and lysosome”, the “organelle colocalization after uptake” value ([12]; 20 μM, serum free media, 30 mins, listed as 1-Cl) was “localized in the mitochondria; also recorded: Most colocalization is seen with the mitochondria” and the “organelle localization after uptake” value ([12]; media containing albumin) was “fluorescence was observed mostly in the mitochondria”. For the same compound, the “covalent binding / reaction with HSA” value [13] was “showed an increase in peak with HSA; also recorded: HSA is bound to 1; also recorded: binds to HSA at cysteine 34 position”, the “covalent binding / reaction with HSA” value ([13]; listed as 1-Cl) was 1:1 covalent adduct and does combine with HSA and the “brightness (εmax × Φ)” value ([14]; 10 mM PBS buffer pH 7.4) was 3689. The “Δλ (Stokes' shift)” value ([14]; 10 mM PBS buffer pH 7.4) was 24 nm, the εmax ([14]; 10 mM PBS buffer pH 7.4) was 149940 cm^−1M^−1 and the λabs ([14]; 10 mM PBS buffer pH 7.4) was 775 nm. The λem ([14]; 10 mM PBS buffer pH 7.4) was 799 nm, the relative brightness ([14]; 10 mM PBS buffer pH 7.4, relative to ICG) was 1.90 and the “Φ (fluorescence quantum yield)” value ([14]; 10 mM PBS buffer pH 7.4, standard A (Φ = 0.13 in DMSO)) was 0.025.
With CC(=O)c1c(C)c2cnc(Nc3ccc(N4CCN(C(=O)CCCCCN5/C(=C/C=C6\CCCC(/C=C/C7=[N+](CCCCCC(=O)[O-])c8ccccc8C7(C)C)=C6Cl)C(C)(C)c6ccccc65)CC4)cn3)nc2n(C2CCCC2)c1=O [Compound 1b] the “cytotoxicity compared with parent dye, parent kinase inhibitor (and their mixture)” value [4] was “more found to be toxic than individual 1, b or a combination of 1+b; also recorded: significantly more toxic than the parent dye, the parent kinase inhibitor, or a mixture of the dye and kinase inhibitor”, the “cytotoxicity compared with ICG-COOH conjugate” value [4] was “more toxic than ICG-COOH-b” and the “cytotoxicity compared with parent dye, parent kinase inhibitor (and their mixture)” value [15] was “more found to be toxic than individual 1, b or a combination of 1+b; also recorded: significantly more toxic than the parent dye, the parent kinase inhibitor, or a mixture of the dye and kinase inhibitor”. The “cytotoxicity compared with parent dye, parent kinase inhibitor (and their mixture)” value [16] was “more toxic than 1 and b; also recorded: more toxic than b or 1”, the “cytotoxicity compared with parent dye, parent kinase inhibitor (and their mixture)” value [5] was “more found to be toxic than individual 1, b or a combination of 1+b; also recorded: significantly more toxic than the parent dye, the parent kinase inhibitor, or a mixture of the dye and kinase inhibitor” and the “uptake by U87-MG cells compared to HUVEC” value [3] was “localizes more in U87-MG cells than HUVEC cells”.
In the case of CC1(C)C(=CC=C2C[N+](C)(C)CC(C=CC3=[N+](CCCCCC(=O)O)c4ccccc4C3(C)C)=C2Cl)N(CCCCCC(=O)O)c2ccccc21 [QCy], the “water solubility (in words)” value [7] is reported as “more water soluble than MHI-148”, the “water soluble up until (concentration)” value [7] is reported as ≤ 1000 µM and the “water solubility (in words)” value ([7]; listed as 1-NMe2) is reported as “significantly more soluble in water than 1-CH2”. The “photostability (in words)” value [8] was “almost no decomposition after 1 h continuous illumination; also recorded: the most photostable”, the “photostability (in words)” value ([8]; listed as 1-NMe2) was “more stable than 1-CH2; also recorded: significantly more photostable than 1-CH2 or ICG” and the “aggregation (H-aggregates) in aqueous media” value [17] was “less prone to aggregation in aqueous media than MHI-148; also recorded: considerably less aggregated than MHI-148”. For the same compound, the IC50 [10] was > 80 µM, the “cytotoxicity (in words)” value [10] was “not very toxic until 80 μM” and the “localization after time (h) 0.5” value [11] was “golgi”. For the same compound, the “localization after time (h) 24” value [11] was “lysosome and ER”, the “fluorescence quantum yield relative to ICG” value [14] was “about three times greater” and the “absorbance of equimolar solutions” value ([14]; 5 μM, 10 mM pH 7.4 PBS) was “greater absorbance than ICG or MHI-148”. The “fluorescence brightness of equimolar solutions” value ([14]; 5 μM, 10 mM pH 7.4 PBS) was “markedly higher than the other two fluors”, the “brightness (εmax × Φ)” value ([14]; 10 mM PBS buffer pH 7.4) was 9901 and the εmax ([14]; 10 mM PBS buffer pH 7.4) was 192460 cm^−1M^−1. The “brightness compared with 1-CH2 (in words)” value ([14]; PBS buffer) was “brighter dye than 1-CH2”, the “brightness relative to 1-CH2” value ([14]; PBS, pH 7.4) was 2 × and the “quantum yield relative to 1-CH2” value ([14]; PBS, pH 7.4) was 2 ×. For the same compound, the “shift of absorbance and fluorescence maxima to shorter wavelengths” value ([14]; compared with ICG and 1-CH2) was ~30 nm, the “extinction coefficient compared with 1-CH2 (in words)” value ([14]; in PBS buffer and in water) was “stronger extinction coefficient than 1-CH2” and the “extinction coefficient relative to 1-CH2” value ([14]; in water) was ~3 ×.
